Results on four molecules are retold here after patent publication US4840966A, “Method of treating hypertension” (Mitsui Norin Co., Ltd., priority 1987, dated 1989).

Where two headings read alike, the source gives them in different places.

In data set [1] the test system is Spontaneously Hypertensive Rats. The data set is described as follows: Systolic blood pressure of SHR fed epigallocatechin gallate in the diet (FIG. 4). The conditions noted are these: 8 weeks old, 0.5% in diet, after seven weeks feeding, control continued to rise. In kind it is in vivo. The source says:
Three SHR (Spontaneously Hypertensive Rats) of 8 weeks old were fed on the diet which consisted of 99.5% of normal diet and 0.5% of epigallocatechin gallate mixed together. As a control two SHR of the same stock were fed on a 100% normal diet. After seven weeks feeding the blood pressure of tea polyphenol fed group levelled off while the blood pressure of the control group continued to rise. In FIG. 4, the curve A denotes the systolic blood pressure of control group while B denotes the systolic blood pressure of test group.

A short description of data set [2]: Acute oral toxicity in mice (LD50). The conditions noted are these: mouse, in vivo, male ICR mice, 8 weeks old, read-out: LD50 of one week.
Data set [3] concerns the target T1, ACE (Angiotensin I converting enzyme) (Sus scrofa, UniProt F1RRW5).
T1 construct: the ACE obtained from renal cortex of pig; from tissue; host or cells: renal cortex of pig
T1 sequence (F1RRW5 34-1309): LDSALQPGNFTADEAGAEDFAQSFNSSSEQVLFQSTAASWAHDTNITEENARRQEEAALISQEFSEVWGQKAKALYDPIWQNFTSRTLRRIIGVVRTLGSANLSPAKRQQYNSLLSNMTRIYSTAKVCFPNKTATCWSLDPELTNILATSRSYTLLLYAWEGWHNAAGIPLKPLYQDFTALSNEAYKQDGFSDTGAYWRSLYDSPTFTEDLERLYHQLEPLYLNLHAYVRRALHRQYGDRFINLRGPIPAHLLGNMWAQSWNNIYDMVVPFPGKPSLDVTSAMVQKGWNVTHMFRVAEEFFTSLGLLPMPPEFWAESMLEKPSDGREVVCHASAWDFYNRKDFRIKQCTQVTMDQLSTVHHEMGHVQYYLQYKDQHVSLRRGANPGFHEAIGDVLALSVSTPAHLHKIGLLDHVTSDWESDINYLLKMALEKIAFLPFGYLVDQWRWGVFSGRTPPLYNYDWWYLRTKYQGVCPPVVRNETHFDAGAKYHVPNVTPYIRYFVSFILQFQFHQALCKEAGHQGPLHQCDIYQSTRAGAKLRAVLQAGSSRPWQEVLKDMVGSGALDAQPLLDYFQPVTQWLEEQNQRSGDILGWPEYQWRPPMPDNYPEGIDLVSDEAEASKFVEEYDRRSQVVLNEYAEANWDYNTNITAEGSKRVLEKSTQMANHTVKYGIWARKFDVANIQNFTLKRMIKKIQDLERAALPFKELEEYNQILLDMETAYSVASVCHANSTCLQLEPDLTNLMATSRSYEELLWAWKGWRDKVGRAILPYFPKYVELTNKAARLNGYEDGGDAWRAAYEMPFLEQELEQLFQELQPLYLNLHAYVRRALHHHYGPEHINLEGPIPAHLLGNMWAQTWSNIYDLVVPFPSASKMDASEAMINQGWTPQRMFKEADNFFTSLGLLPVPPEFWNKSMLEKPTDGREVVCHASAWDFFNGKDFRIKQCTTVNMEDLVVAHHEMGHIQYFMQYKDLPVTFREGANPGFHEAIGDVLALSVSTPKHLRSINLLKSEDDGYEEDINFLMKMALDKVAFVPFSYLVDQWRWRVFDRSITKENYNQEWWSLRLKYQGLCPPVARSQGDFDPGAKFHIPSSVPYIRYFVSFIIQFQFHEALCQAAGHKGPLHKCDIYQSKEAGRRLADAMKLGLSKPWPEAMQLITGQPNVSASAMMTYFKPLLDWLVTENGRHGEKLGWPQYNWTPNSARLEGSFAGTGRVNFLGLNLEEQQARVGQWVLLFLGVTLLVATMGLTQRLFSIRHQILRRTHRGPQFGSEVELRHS
The data set is described as follows: Inhibition of ACE (Hip-His-Leu substrate, O-phthal aldehyde fluorescence). In kind it is biochemical, pig.
Source text: The activity of ACE inhibition was expressed by the equation
in which S was the intensity of the fluorescence in the above described procedure with the sample solution, A was the value of the blank test by replacing the sample solution with the same volume of water and B was the value obtained by replacing the enzyme solution with the same volume of pure water.

A further data set deals with T2, carboxypeptidase A (Bos taurus, UniProt P00730).
T2 sequence (P00730 111-419): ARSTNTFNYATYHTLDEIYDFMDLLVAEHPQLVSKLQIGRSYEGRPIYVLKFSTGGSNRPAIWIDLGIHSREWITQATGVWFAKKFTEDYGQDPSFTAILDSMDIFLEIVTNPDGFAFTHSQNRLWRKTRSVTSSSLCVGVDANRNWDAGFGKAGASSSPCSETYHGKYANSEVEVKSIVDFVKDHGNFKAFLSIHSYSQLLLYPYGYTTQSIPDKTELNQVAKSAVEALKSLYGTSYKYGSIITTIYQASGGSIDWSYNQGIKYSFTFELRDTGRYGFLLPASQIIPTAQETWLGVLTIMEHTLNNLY
The data set is described as follows: Inhibition of carboxypeptidase A. Type of data set: biochemical.

Where [4] appears, read: ACE from renal cortex of pig, Hip-His-Leu substrate, 37° C.

With `O=C(O[C@@H]1Cc2c(O)cc(O)cc2O[C@@H]1c1cc(O)c(O)c(O)c1)c1cc(O)c(O)c(O)c1` [(-)-Epigallocatechin gallate, (-)-epigallocatechin gallate], the “blood pressure (in words)” value in data set [1] is given as “levelled off”. Moreover, the LD50 at 168 h in data set [2] was found to be 2310 mg/kg. In addition, the IC50 was 90 µM in data set [3] and 3000 µM at carboxypeptidase A.

Turning to `O=c1c(O)cc([C@H]2Oc3cc(O)cc(O)c3C[C@H]2O)cc2c([C@H]3Oc4cc(O)cc(O)c4C[C@H]3O)cc(O)c(O)c12` [Free theaflavin, free theaflavin], the figures for the IC50 (in data set [3] (setting [4]); against carboxypeptidase A) were 400 µM and > 5000 µM, respectively.

Take `O=C(O[C@@H]1Cc2c(O)cc(O)cc2O[C@@H]1c1cc(O)c(=O)c2c(O)c(O)cc([C@H]3Oc4cc(O)cc(O)c4C[C@H]3O)c2c1)c1cc(O)c(O)c(O)c1` [Theaflavin monogallate A, theaflavin monogallate A]: the IC50 is 115 µM in data set [3] (setting [4]) and > 5000 µM against carboxypeptidase A.

In the case of `O=C(O[C@@H]1Cc2c(O)cc(O)cc2O[C@@H]1c1cc(O)c(O)c2c(=O)c(O)cc([C@H]3Oc4cc(O)cc(O)c4C[C@H]3O)cc12)c1cc(O)c(O)c(O)c1` [Theaflavin monogallate B, theaflavin monogallate B], the values for the IC50 (in data set [3] (setting [4]); against carboxypeptidase A) were 110 µM and > 5000 µM, respectively.

Broadly, the LD50 is the dose at which mortality reaches 50%. In general, IC50 refers to the concentration at which inhibition is half-maximal.
